Source: PubChem BioAssay (NCI)
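A five-concentration, 48-hour dose response in 96-well plates underlies each endpoint, interpolated linearly between surrounding concentrations. Abbreviation: GI50, concentration required for 50% inhibition of growth. At the TGI there is no net growth.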

Assays:
Experiment in all cases: NCI tumour cell line growth inhibition, 48 h; in the data active = GI50 below about 0.43 µM; inactive = the rest
786-0 renal = system: 786-0 renal
A498 renal = system: A498 renal
A549 NSCLC = system: A549 NSCLC
ACHN renal = system: ACHN renal
BT-549 breast = system: BT-549 breast
CAKI-1 renal = system: CAKI-1 renal
CCRF-CEM leukemia = system: CCRF-CEM leukemia
COLO 205 colon = system: COLO 205 colon
DU-145 prostate = system: DU-145 prostate
EKVX NSCLC = system: EKVX NSCLC
HCC-2998 colon = system: HCC-2998 colon
HCT-116 colon = system: HCT-116 colon
HCT-15 colon = system: HCT-15 colon
HL-60(TB) leukemia = system: HL-60(TB) leukemia
HOP-62 NSCLC = system: HOP-62 NSCLC
HOP-92 NSCLC = system: HOP-92 NSCLC
HS 578T breast = system: HS 578T breast
HT29 colon = system: HT29 colon
IGROV1 ovarian = system: IGROV1 ovarian
K-562 leukemia = system: K-562 leukemia
KM12 colon = system: KM12 colon
LOX IMVI melanoma = system: LOX IMVI melanoma
M14 melanoma = system: M14 melanoma
MALME-3M melanoma = system: MALME-3M melanoma
MCF7 breast = system: MCF7 breast
MDA-MB-231 breast = system: MDA-MB-231 breast
MDA-MB-435 = system: MDA-MB-435
MOLT-4 leukemia = system: MOLT-4 leukemia
NCI-H226 lung = system: NCI-H226 lung

Cc1ccc(NC(=O)c2ccoc2)cc1-c1ccc(C(=O)NCC2CC2)cc1
inactive: GI50 (786-0 renal) > 25 µM | GI50 (A498 renal) > 11.3 µM | GI50 (A549 NSCLC) > 19.5 µM | GI50 (ACHN renal) > 25 µM | GI50 (BT-549 breast) > 19.7 µM | GI50 (CAKI-1 renal) > 25 µM | GI50 (CCRF-CEM leukemia) > 25 µM | GI50 (COLO 205 colon) > 25 µM | GI50 (DU-145 prostate) > 25 µM | GI50 (EKVX NSCLC) > 13.5 µM | GI50 (HCC-2998 colon) > 25 µM | GI50 (HCT-116 colon) > 25 µM | GI50 (HCT-15 colon) > 20.5 µM | GI50 (HL-60(TB) leukemia) > 20.4 µM | GI50 (HOP-62 NSCLC) > 25 µM | GI50 (HOP-92 NSCLC) 8.76 µM | GI50 (HS 578T breast) > 19.3 µM | GI50 (HT29 colon) > 25 µM | GI50 (IGROV1 ovarian) > 25 µM | GI50 (K-562 leukemia) > 18.6 µM | GI50 (KM12 colon) > 25 µM | GI50 (LOX IMVI melanoma) > 25 µM | GI50 (M14 melanoma) > 25 µM | GI50 (MALME-3M melanoma) > 12.9 µM | GI50 (MCF7 breast) > 16.1 µM | GI50 (MDA-MB-231 breast) > 22.6 µM | GI50 (MDA-MB-435) > 25 µM | GI50 (MOLT-4 leukemia) > 25 µM | GI50 (NCI-H226 lung) > 19.5 µM
> 25 µM: TGI (786-0 renal) | TGI (A498 renal) | TGI (A549 NSCLC) | TGI (ACHN renal) | TGI (BT-549 breast) | TGI (CAKI-1 renal) | TGI (CCRF-CEM leukemia) | TGI (COLO 205 colon) | TGI (DU-145 prostate) | TGI (EKVX NSCLC) | TGI (HCC-2998 colon) | TGI (HCT-116 colon) | TGI (HCT-15 colon) | TGI (HL-60(TB) leukemia) | TGI (HOP-62 NSCLC) | TGI (HOP-92 NSCLC) | TGI (HS 578T breast) | TGI (HT29 colon) | TGI (IGROV1 ovarian) | TGI (K-562 leukemia) | TGI (KM12 colon) | TGI (LOX IMVI melanoma) | TGI (M14 melanoma) | TGI (MALME-3M melanoma) | TGI (MCF7 breast) | TGI (MDA-MB-231 breast) | TGI (MDA-MB-435) | TGI (MOLT-4 leukemia) | TGI (NCI-H226 lung)
